# Target: T1, recombinant glucosyltransferase domain of C. difficile Toxin B/TcdB (Clostridioides difficile, UniProt P18177)
# T1 construct: 6-His (C); purchased R&D Systems 6246-GT
# Assay: biochemical
# T1 sequence (P18177 1-543): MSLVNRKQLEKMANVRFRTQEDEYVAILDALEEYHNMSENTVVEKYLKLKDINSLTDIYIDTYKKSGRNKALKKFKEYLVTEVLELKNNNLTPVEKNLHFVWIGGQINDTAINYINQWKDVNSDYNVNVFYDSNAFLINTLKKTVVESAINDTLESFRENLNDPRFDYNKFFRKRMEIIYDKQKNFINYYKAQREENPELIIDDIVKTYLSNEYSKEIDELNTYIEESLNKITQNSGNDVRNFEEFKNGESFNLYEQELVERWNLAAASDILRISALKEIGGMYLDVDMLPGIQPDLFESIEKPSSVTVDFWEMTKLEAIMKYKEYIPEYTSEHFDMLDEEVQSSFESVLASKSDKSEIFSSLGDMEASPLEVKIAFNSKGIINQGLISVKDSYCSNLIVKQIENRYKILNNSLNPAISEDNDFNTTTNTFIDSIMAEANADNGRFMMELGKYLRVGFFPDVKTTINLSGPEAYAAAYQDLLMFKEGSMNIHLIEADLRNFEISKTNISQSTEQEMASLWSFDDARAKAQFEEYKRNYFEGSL
row,Compound,IC50 [µM]
1,"Cc1cnc2c(c1)CCN2C(=O)c1ccc(CN2C(=O)c3ccc(Cl)cc3NC(=O)[C@H]2Cc2ccccn2)cc1F [Example 6f, (R)-8-chloro-4-(3-fluoro-4-(5-methyl-2,3-dihydro-1H-pyrrolo[2,3-b]pyridine-1-carbonyl)benzyl)-3-(pyridin-2-ylmethyl)-3,4-dihydro-1H-benzo[e][1,4]diazepine-2,5-dione]",< 0.1
2,"C[C@@H]1C(=O)Nc2cc(Cl)ccc2C(=O)N1Cc1ccc(C(=O)Nc2ccc(N3CCN(C(=O)OC(C)(C)C)CC3)cn2)cc1 [Example 4bg, (R)-tert-butyl 4-(6-(4-((8-chloro-3-methyl-2,5-dioxo-2,3-dihydro-1H-benzo[e][1,4]diazepin-4(5H)-yl)methyl)benzamido)pyridin-3-yl)piperazine-1-carboxylate]",0.1 to 0.999
3,"Cc1cnc(NC(=O)c2ccc(CN3C(=O)c4ccc(Cl)cc4NC(=O)[C@H]3Cc3ccccn3)cc2Cl)nc1 [Example 5as, (R)-2-chloro-4-((8-chloro-2,5-dioxo-3-(pyridin-2-ylmethyl)-2,3-dihydro-1H-benzo[e][1,4]diazepin-4(5H)-yl)methyl)-N-(5-methylpyrimidin-2-yl)benzamide]",< 0.1
4,"O=C1Nc2cc(Cl)ccc2C(=O)N(Cc2ccc(C(=O)N3CCCC3=O)cc2)[C@@H]1Cc1ccccn1 [Example 12b, (R)-8-chloro-4-(4-(2-oxopyrrolidine-1-carbonyl)benzyl)-3-(pyridin-2-ylmethyl)-3,4-dihydro-1H-benzo[e][1,4]diazepine-2,5-dione]",1 to 10
5,O=C(Nc1ccc(CN2C(=O)c3ccc(Cl)cc3NC(=O)[C@H]2Cc2ccccn2)cc1)c1ncccc1Cl [Example 26g],1 to 10
6,"CN(C(=O)c1ccc(CN2C(=O)c3ccc(Cl)cc3NC(=O)[C@H]2Cc2cccnc2)cc1)c1ccccn1 [Example 4m, (R)-4-((8-chloro-2,5-dioxo-3-(pyridin-3-ylmethyl)-2,3-dihydro-1H-benzo[e][1,4]diazepin-4(5H)-yl)methyl)-N-methyl-N-(pyridin-2-yl)benzamide]",0.1 to 0.999
7,"NC(=O)c1ccc(CN2C(=O)c3ccc(Cl)cc3NC(=O)[C@H]2Cc2cccnc2)cc1 [Example 13c, (R)-4-((8-chloro-2,5-dioxo-3-(pyridin-3-ylmethyl)-2,3-dihydro-1H-benzo[e][1,4]diazepin-4(5H)-yl)methyl)benzamide]",1 to 10
8,"CCc1ccc(NC(=O)c2ccc(CN3C(=O)c4ccc(Cl)cc4NC(=O)[C@H]3Cc3ccccn3)cc2)nc1 [Example 4ap, (R)-4-((8-chloro-2,5-dioxo-3-(pyridin-2-ylmethyl)-2,3-dihydro-1H-benzo[e][1,4]diazepin-4(5H)-yl)methyl)-N-(5-ethylpyridin-2-yl)benzamide]",< 0.1
9,O=C(Nc1ccc(CN2C(=O)c3ccc(Cl)cc3NC(=O)[C@H]2Cc2ccccn2)cc1)c1ccc(Cl)cn1 [Example 26i],< 0.1
10,"CC1(C)Cc2cccnc2N1C(=O)c1ccc(CN2C(=O)c3ccc(Cl)cc3NC(=O)[C@H]2Cc2ccccn2)cc1Cl [Example 4ar, (R)-8-chloro-4-(3-chloro-4-(2,2-dimethyl-2,3-dihydro-1H-pyrrolo[2,3-b]pyridine-1-carbonyl)benzyl)-3-(pyridin-2-ylmethyl)-3,4-dihydro-1H-benzo[e][1,4]diazepine-2,5-dione]",< 0.1
11,O=C(Nc1ccccn1)c1ccc(CN2C(=O)c3cccc(Cl)c3NC(=O)[C@H]2Cc2cccnc2)cc1 [Example 35i],1 to 10
12,"Cc1cccc(NC(=O)c2ccc(CN3C(=O)c4ccc(Cl)cc4NC(=O)[C@H]3Cc3cccnc3)cc2)n1 [Example 4o, (R)-4-((8-chloro-2,5-dioxo-3-(pyridin-3-ylmethyl)-2,3-dihydro-1H-benzo[e][1,4]diazepin-4(5H)-yl)methyl)-N-(6-methylpyridin-2-yl)benzamide]",10 to 35
